Assay results published in PMC11087482, “Discovering allatostatin type-C receptor specific agonists” (Nature Communications, 2024).
Values after ≈ are worked out from the molar mass of the structure shown. Read-outs that look alike come from different tables or passages of the source. Marks after values point to notes of the source that are not given here. Positions of bridges follow the written chain, without caps; N, C: chain ends. Non-standard residues stand in square brackets, D forms with d. Residues, ends and D or L forms follow the SMILES beside them. pGlu = O=C1CC[C@@H](C(=O)O)N1

How the values were obtained:
[1] = design: method as in PMID 19540423, PMID 20936640; details: cited from earlier work
T. pityocampa AlstR-C = assay: TGF-α shedding assay on HEK293 cells overexpressing the receptor; assay type: cell-based, Thaumetopoea pityocampa; details: Gαq/i1, read-out: EC50 (AP-TGFα release)
Description: HEK293 cells were maintained in DMEM (PAN Biotech) supplemented with 10% FBS (Gibco) and 1% Penicillin-Streptomycin (Gibco) at 37 °C in a 5% CO2 incubator. Cells were seeded in 6-well plates before transfection, and Lipofectamine™ 3000 Transfection Reagent (Thermo Fisher Scientific) was used for transfection in compliance with the manufacturer’s instructions.
HEK293 cells were seeded in DMEM 10% FBS without P/S to 6-well plates 1 day before the transfection. Following overnight incubation at 37 °C, the cells were cotransfected with plasmids of the desired receptor (100 ng)[44],[48] or pcDNA3.1, AP-TGFα (250 ng), and Gαq/i1 (10 ng) using Lipofectamine™ 3000 Transfection Reagent and incubated 24 h at 37 °C 5% CO2 incubator. Plasmids used for the TGF-α shedding assay were kindly gifted from Prof. Asuka Inoue[82],[83]. TGF-α Shedding Assay was used to measure the activity of studied compounds[83]. Cell harvesting was accomplished with TrypLE™ Express Enzyme (Gibco) since it was previously noted that trypsinization results in a higher background signal. After reseeding the cells in a 96-well plate, 10x concentrations of the compounds prepared in HBSS were applied for stimulation. For compounds not readily soluble in water, a concentration of 0.01 % (w/v) bovine serum albumin (BSA) in HBSS was used for dilution. Each treatment was performed with four replicas. Alkaline phosphatase activity was measured before and after 1-h and 2-h incubation at room temperature, and the absorbance of the plates at 405 nm was measured. AP-TGF-α release signals were fitted to a four-parameter sigmoidal dose-response curve, and EC50 values were calculated using GraphPad Prism 9.5.

T. pityocampa larvae [2] = assay: Larval body allometry (body length, head capsule width) on day 14 of treatment; assay type: in vivo, Thaumetopoea pityocampa; details: for head capsule width / total body length: 14th day of treatment; for Larva Length, Mean Difference (I-J) versus Control / head capsule width, Mean Difference (I-J) versus Control: day 14, Tukey HSD, n = 20
Description: In addition, the ability of the identified hit compounds to alter larval body allometry was tested through measuring total body lengths and head capsule widths on the 14th day of treatment (Fig. 7).
(§1) Insect deaths were evaluated on the 3rd, 7th, and 14th days in toxicity and side effect experiments. The ones that were not feeding or not responding by a movement to stimulation with a soft-tipped brush were accepted as dead. Percentage mortality values generated on the 14th day were corrected using Abbott’s formula[84]. Statistical analyses were executed with IBM SPSS Statistics (v26.0) and R Studio (2022.02.0), and two-way ANOVA and Tukey test were performed to detect the data’s statistical significance. Lethal concentration values of LC50–90 (dose that produces 50-90% mortality in the population) with 95% confidence intervals (CI) and slopes were obtained using PoloPlus software (LeOra Software, USA) for mortality values assessed on the 14th day for T. pityocampa and the 3rd day for L. decemlineata. The LC50–90 values were considered to be similar if their 95% CIs overlapped (P > 0.05)[85]. Analysis between-subject effects on T. pityocampa larva length; one-way ANOVA tests assessing the impacts of molecule treatment on T. pityocampa larvae on larva length; and analysis of between-subjects effects on T. pityocampa head capsule width, alongside one-way ANOVA tests regarding the effects of molecule treatment on T. pityocampa larvae to head capsule width are detailed in the Source Data File (Source Data Supplementary Data Tables 1–4). Source data is available as Source Data File.

AlstR-C = assay: GloSensor cAMP assay after forskolin stimulation; assay type: cell-based, Thaumetopoea pityocampa; details: after 10 µM forskolin
Description: The ability of the hit compounds to activate the Gαi pathway was evaluated using a commercial cAMP assay (GloSensor, Promega). Prior to ligand treatment, cells were stimulated with 10 µM forskolin to elevate intracellular cAMP levels, and the ability of each ligand and control to downregulate cAMP was evaluated after 1 h. […] As an additional control, the ability of the hit compounds to activate a different receptor (5-HTR4) was also assessed using an AP-TGFα assay (Fig. 4k).
HEK293 cells were seeded 30,000 cells per well in DMEM 10% FBS without P/S to Greiner 655094 96-well plates 1 day before the transfection. Following overnight incubation at 37 °C, the cells were cotransfected with plasmids of the desired receptor along with GloSensor^TM cAMP plasmid using Lipofectamine™ 3000 Transfection Reagent and incubated 24 h at 37 °C 5% CO2 incubator. […] The baseline development was measured on a Thermo Scientific Fluoroskan Ascent FL Microplate Fluorometer and Luminometer plate reader following the cell stimulation with 10 μL 10 μM forskolin, approximately 1 h. […] Luminescence was measured at 1 read per well every 2 min, scaling factor was 10. Data were analyzed by calculating the area under the curve (AUC) over the ~2-h measurement period. Statistical significance was measured with ANOVA, and multiple comparisons were done with Dunnett’s Test. […]

T. pityocampa larvae [3] = assay: Toxicity tests, topical application on second instar larvae; assay type: in vivo; details: for Mean mortality: highest effect
Description: (§2) Pine processionary moth 2nd instar larvae of Thaumetopoea pityocampa for toxicity tests, adult, and 1st instar larvae of predator Calosoma sycophanta, 2nd instar larvae of potato beetle Leptinotarsa decemlineata were used for side effect assays.
T. pityocampa larvae were collected from red pine trees, Pinus brutia, in Nallıhan district of Ankara, Türkiye, in 2021. Larvae were cultured in 60 (±10) % humidity, 27 (±2) °C, and 16:8 light: dark photoperiod and were fed with red pine needles.
Stock solutions of the molecules were dissolved in DMSO, AST-C peptide was dissolved in PBS supplemented with 0.1% BSA pH 7.4. Dilutions were prepared in PBS supplemented with 0.1% BSA pH 7.4 in 50, 100, 250, 500, 750, and 1000 ppm (mg/L) concentrations and later placed in an ultrasonic bath (Sonorex, Bandelin) for ~10 min at 37 °C until all precipitates had vanished. Toxicity tests were conducted 1 day after larvae collection. 5 µL of doses were applied on the dorsal surface of the head-prothorax junction topically. […] Two negative control groups were prepared as PBS-applied and no application. Following the procedures, larvae were fed with 15 g P. brutia needles. Experiments were carried out on 10 larvae for each dosage, with three repeats.
as §1

[4] = test system: Leptinotarsa decemlineata second-instar larvae; assay: Side effect tests on potato beetle larvae, topical application; assay type: in vivo; details: 1000 ppm topical, second-instar larvae, days 3, 7, 14
Description: as §2
(§3) L. decemlineata larvae were collected from a potato field in Kahramankazan district of Ankara province in 2022. The larvae were cultured in the laboratory under 60% (±10) humidity, 27(±2) °C temperature, and 16:8 light: dark photoperiod with potato plant leaves.
(§4) Effective molecules of toxicity tests were applied on adults, 1st instar larvae of predator C. sycophanta, and 2nd instar larvae of potato beetle L. decemlineata to evaluate side effects.
(§5) 5 µL of 1000 ppm dose were applied topically on the dorsal surface of the head-prothorax junction 2nd instar larvae of potato beetle. 30 larvae were used in assays, and larvae were placed on potato leaves inside the water-filled cups for feeding. Negative control groups were as previously described. Dimilin 25 WP (%25 diflubenzuron) was used as a positive control on L. decemlineata. Experiments were carried out with three repeats.
as §1

[5] = test system: Calosoma sycophanta first-instar larvae and adults; assay: Side effect tests on predatory insect, topical application; assay type: in vivo; details: 1000 ppm topical, days 3, 7, 14
Description: as §2
C. sycophanta adults and T. pityocampa nests were collected from Korkuteli forests in Antalya 2022. T. pityocampa nests were stored at +4 °C to prevent pupae formation. 20 adult C. sycophanta were placed in clear plastic boxes (30 × 45 × 30 cm) with moist soil at the bottom. Adults were fed with T. pityocampa larvae regularly. After mating, C. sycophanta eggs were collected from the soil with a soft tip brush, and eggs were reserved in moist cotton until eggs cracked. Subsequently, C. sycophanta larvae were placed individually in clear, hard plastic cups (180 cm^3) containing moist soil and covered with glass. One T. pityocampa larva per day was added to each cup for feeding. Predator insects were cultured in 65 (±5) % humidity, 25 (±5) °C, and 16:8 light: dark photoperiod.
as §4
C. sycophanta larvae and adults were placed individually in clear, hard plastic cups (180 cc) containing moist soil. 5 µL of 1000 ppm dose was applied topically on the head-prothorax junction’s dorsal surface. 50 larvae and adults were used in the experiments. One T. pityocampa larva per day was added to each cup for feeding. Two negative controls were PBS-applied and no application groups.
as §1, with “Analysis between-subject effects on T. pityocampa larva length; one-way ANOVA tests assessing the impacts of molecule treatment on T. pityocampa larvae on larva length; and analysis of between-subjects effects on T. pityocampa head capsule width, alongside one-way ANOVA tests regarding the effects of molecule treatment on T. pityocampa larvae to head capsule width are detailed in the Source Data File (Source Data Supplementary Data Tables 1–4). Source data is available as Source Data File.” left out

[6] = Side effect tests on potato beetle larvae, topical application; assay type: in vivo; details: Leptinotarsa decemlineata, in vivo
Description: as §2, §3, §4, §5, §1

[7] = day 14 mortality, Probit analysis
[8] = Thaumetopoea pityocampa, topical, 336 h, read-out: LC50 (95% CI)
[9] = Thaumetopoea pityocampa, topical, 336 h

Row | Compound | shelf life and degradation in the environment [1] | EC50 (T. pityocampa AlstR-C) [µM] | head capsule width (T. pityocampa larvae [2]) | total body length (T. pityocampa larvae [2]) | Larva Length, Mean Difference (I-J) versus Control (T. pityocampa larvae [2]) | head capsule width, Mean Difference (I-J) versus Control (T. pityocampa larvae [2]) | ability to downregulate cAMP (RLU) (AlstR-C) | Mean mortality (T. pityocampa larvae [3]; 14 days post-administration) [%] | LC50 (T. pityocampa larvae [3]; day 14 after the application, Probit analysis) [ppm] | LC50 (95% CI) (T. pityocampa larvae [3]; [7]) | LC90 (95% CI) (T. pityocampa larvae [3]; [7]) | mortality rate (T. pityocampa larvae [3]; 14 days post-administration, highest dose) | LC50 (T. pityocampa larvae [3]; [8]) [µg/mL] | mortality (T. pityocampa larvae [3]; end of day 7, 1000 ppm) [%] | Insect deaths (mortality rate) [4] | Insect deaths (mortality rate) [5] | LC50 (T. pityocampa larvae [3]; [9]) [µg/mL] | LC50 at 3 days ([6]; L. decemlineata larvae, positive control, 3rd day mortality) [µg/mL] | LC50 at 3 days ([6]; potato beetle larvae, after 3 days of application) [µg/mL] | mortality (T. pityocampa larvae [3]; after 3 days, >500 ppm) [%]
1 | CC[C@H](C)[C@@H]1NC(=O)[C@@H]2CCCN2C(=O)[C@H](CC(N)=O)NC(=O)[C@H](Cc2ccccc2)NC(=O)[C@H](Cc2ccc(O)cc2)NC(=O)[C@@H](NC(=O)[C@H](CCC(N)=O)NC(=O)[C@H](CCCNC(=N)N)NC(=O)[C@H](Cc2ccccc2)NC(=O)[C@H](CCCNC(=N)N)NC(=O)[C@@H](NC(=O)[C@@H]2CCC(=O)N2)C(C)C)CSSC[C@@H](C(=O)N[C@@H](Cc2ccccc2)C(=O)O)NC(=O)[C@H](CO)NC1=O [AST-C, reference compound] ([pGlu]VRFRQCYFNPISCF-OH; disulfide 7-14; C-terminus assumed) | comparatively short shelf life and undergoes rapid degradation in the environment | 0.000623 | Statistically significant decreases | Statistically significant decreases | -9,070* mm | -1,105* mm | most significant impact | 100 | 152 | 152.414 (101.993–209.528) mg/L | 782.851 (512.785–1616.980) mg/L | – | – | – | – | – | – | – | – | –
2 | O=C1c2n[nH]c(-c3ccccc3O)c2C(c2cccc(Oc3ccccc3)c2)N1CC1CCCO1 (stereo not drawn) [D074-0013] | – | 1.42 | small compared to other molecules | small compared to other molecules | -4,445* mm | – | – | – | – | – | – | below 50% | > 1000 | 27 | below 10% | below 10% | – | – | – | –
3 | O=C1c2n[nH]c(-c3ccccc3O)c2C(c2cccc(OCc3ccccc3)c2)N1CC1CCCO1 (stereo not drawn) [D074-0034] | – | 4.7 | – | – | -7,845* mm | -1,000* mm | – | – | – | – | – | – | 444 (≈ 921 µM) | – | below 10% | below 10% | 443 (≈ 920 µM) | – | – | –
4 | O=C(NC(=O)c1c(F)cccc1F)Nc1ccc(Cl)cc1 [Diflubenzuron, diflubenzuron, reference compound] | – | – | – | – | – | – | – | – | – | – | – | – | – | – | – | – | – | 38.5 (≈ 124 µM) | 38 (≈ 122 µM) | –
5 | O=C(C[C@@H]1NC(=O)c2ccccc2NC1=O)NCCn1c(=O)c(O)nc2ccccc21 [J100-0311] | – | 5.66 | – | – | -8,015* mm | -1,075* mm | – | – | – | – | 6740.368 (2743.061–6.275 × 10^4) mg/L | – | 412 (≈ 977 µM) | – | below 10% | below 10% | 411 (≈ 975 µM) | – | – | –
6 | COc1ccc([C@H](CC(=O)NCc2ccncc2)c2cn(Cc3ccc(C)cc3)c3ccccc23)cc1OCc1ccccc1 [V029-3547] | – | 8.17 | – | – | -8,705* mm | -1,120* mm | greatest ability to modulate cAMP | 83.7 | – | – | 900.815 (696.503–1634.450) mg/L | – | 406 (≈ 682 µM) | – | below 10% | below 10% | 406 (≈ 682 µM) | – | – | > 63.3
